Laboratory results published in publication PMC9481563, “Structural insights into the pSer/pThr dependent regulation of the SHP2 tyrosine phosphatase in insulin and CD28 signaling” (Nature Communications, 2022).

Biological target: T1, SHP2 catalytic domain (219–528), C459S, wild-type (inactive) (Homo sapiens, UniProt Q06124, C459S)
T1 construct: SHP2 catalytic domains (219–528 with or without C459S) were sub-cloned into pBH4 vectors; His6 (N); made in house; host or cells: E. coli BL21 (DE3)
T1 sequence (Q06124 219-528 C459S): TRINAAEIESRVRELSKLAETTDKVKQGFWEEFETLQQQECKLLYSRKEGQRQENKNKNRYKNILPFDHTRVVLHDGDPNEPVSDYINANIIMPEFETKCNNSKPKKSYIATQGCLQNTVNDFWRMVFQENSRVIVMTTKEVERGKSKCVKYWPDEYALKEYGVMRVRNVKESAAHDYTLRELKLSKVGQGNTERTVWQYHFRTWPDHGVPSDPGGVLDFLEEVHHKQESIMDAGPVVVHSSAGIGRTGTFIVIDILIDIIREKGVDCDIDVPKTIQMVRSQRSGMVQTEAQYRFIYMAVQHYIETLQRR
Experiment: Fluorescence polarization titrations, inactive SHP2 catalytic domain
Format: binding
Details: competitive FP titration vs CF-ppIRS1 100 nM, protein fixed, unlabelled peptide varied; n = 3 technical replicates
From the text: The two SH2 domains of PI3KR1 (UniProt P27986; nSH2: 321−433 cSH2: 614–724) were cloned from HEK293T cDNA pool, and subsequently ligated into a modified pET vector encoding maltose binding protein (MBP) tag on the N-terminal and a hexa-His tag on the C-terminal end of the construct. Similarly, the catalytic, tyrosine phosphatase domains of PTPRε (P23469 first domain: 107–399) and PTP1B (P18031; 1–229) were cloned from a HEK293T cDNA pool, and inserted into a pBH4 vector encoding an N-terminal His6 tag (for the final binding experiments, an MBP-tagged version of PTPRε was employed). […] Wild-type C-terminal FLAG-tagged human IRS1 was cloned between HindIII-NotI sites of pcDNA3.1(+) vector (#V79020 Invitrogen, Waltham MA USA). Ser/Ala mutant IRS1 was generated by replacing the region of S616/S636/S666/S736 positions with a cassette carrying S616A/S636A/S666A/S736A mutations. All constructs were validated by complete Sanger sequencing before protein expression and purification. The oligonucleotide sequences used are shown on Supplementary table 4.
Fluorescence polarization was always measured in triplicates, on black Corning low volume round bottom 384-well plates (with 10 ul volumes), using a BioTek Cytatation 5 reader, with the green fluorescent protein (GFP) cube filter set (ex: 485/20, em: 528/20, gain: 50, height: 7.5). Fluorescence polarization data was evaluated on Origin 2018. The dissociation constants (Kd) were determined by using the appropriate quadratic and cubic equations inserted as a user-defined function and applying nonlinear fit until convergence. The fitting formulae are shown at Supplementary note 1. Kd ratio distributions for Fig. 6 were calculated using a Monte-Carlo approach (Supplementary note 2).
Supplementary note 1. Curve fitting of fluorescence polarization (FP) measurements.
To evaluate polarization values from direct and competitive titrations, we used the following fitting formulae in Origin 2018, as detailed below.
Direct titration curves were fitted according to the following formula: […]
Where Imin is the minimal anisotropy, Imax is the (asymptotically estimated) maximal intensity. K0 is the starting concentration of the protein, while T0 is the (fixed) concentration of the labelled peptide and Kd is the dissociation constant.
Competitive titration curves were fitted with a different formula (In addition to those defined above, constants KdT KdB B0 T0 and D0 here refer to the Kd derived from the direct titration, the unknown Kd of the analyte, the labelled peptide concentration, the competitor peptide concentration as well as the protein concentration, respectively).
The ± sign refers to two different scenarios, depending on the sign of discriminant (KdT > KdB or […]). For unknown analytes, the choice of sign is not arbitrary, as the fitting will not converge unless the appropriate formula is chosen: […]
Where A, B and C correspond to the following expressions: […]

Row | SMILES | Kd
1 | CSCC[C@H](NC(=O)[C@H](Cc1ccc(OP(=O)(O)O)cc1)NC(=O)[C@H](CC(=O)O)NC(=O)[C@H](CO)NC(=O)[C@H](Cc1c[nH]cn1)NC(=O)[C@H](CC(C)C)NC(=O)[C@H](CC(C)C)NC(=O)[C@H](CCCNC(=N)N)NC(=O)[C@H](CO)NC(=O)[C@@H](N)CCCNC(=N)N)C(=O)N[C@@H](CC(N)=O)C(=O)N[C@@H](CCSC)C(=O)N[C@H](C(=O)N1CCC[C@H]1C(=O)N[C@@H](CCCNC(=N)N)C(=O)N[C@@H](CCCNC(=N)N)C(=O)O)[C@@H](C)O [p0CD28] | 39.7 ± 1.81 µM
2 | CSCC[C@H](NC(=O)[C@@H]1CCCN1C(=O)[C@H](CCSC)NC(=O)[C@H](Cc1ccc(OP(=O)(O)O)cc1)NC(=O)[C@H](CC(=O)O)NC(=O)CNC(=O)[C@H](CO)NC(=O)CNC(=O)[C@H](CCCCN)NC(=O)[C@H](CCCNC(=N)N)NC(=O)CN)C(=O)N[C@@H](CO)C(=O)N1CCC[C@H]1C(=O)N[C@@H](CCCCN)C(=O)N[C@@H](CO)C(=O)O [p0IRS1] | 255 ± 34.9 µM
3 | CC[C@H](C)[C@H](NC(=O)[C@H](CC(N)=O)NC(=O)[C@@H](NC(=O)[C@H](Cc1ccc(OP(=O)(O)O)cc1)NC(=O)[C@H](CCC(=O)O)NC(=O)CNC(=O)[C@@H]1CCCN1C(=O)[C@H](CO)NC(=O)[C@H](CCCCN)NC(=O)[C@@H]1CCCN1C(=O)[C@@H](N)CCC(=O)O)C(C)C)C(=O)N[C@@H](CCC(=O)O)C(=O)N[C@@H](Cc1ccccc1)C(=O)O [p0SRev-IRS1] | 8.4 ± 0.75 µM
4 | CSCC[C@H](NC(=O)[C@H](Cc1ccc(OP(=O)(O)O)cc1)NC(=O)[C@H](CC(=O)O)NC(=O)[C@H](CO)NC(=O)[C@H](Cc1c[nH]cn1)NC(=O)[C@H](CC(C)C)NC(=O)[C@H](CC(C)C)NC(=O)[C@H](CCCNC(=N)N)NC(=O)[C@H](CO)NC(=O)[C@@H](N)CCCNC(=N)N)C(=O)N[C@@H](CC(N)=O)C(=O)N[C@@H](CCSC)C(=O)N[C@H](C(=O)N1CCC[C@H]1C(=O)N[C@@H](CCCNC(=N)N)C(=O)N[C@@H](CCCNC(=N)N)C(=O)O)[C@@H](C)OP(=O)(O)O [ppCD28] | 5.66 ± 0.29 µM
5 | CSCC[C@H](NC(=O)[C@@H]1CCCN1C(=O)[C@H](CCSC)NC(=O)[C@H](Cc1ccc(OP(=O)(O)O)cc1)NC(=O)[C@H](CC(=O)O)NC(=O)CNC(=O)[C@H](CO)NC(=O)CNC(=O)[C@H](CCCCN)NC(=O)[C@H](CCCNC(=N)N)NC(=O)CN)C(=O)N[C@@H](COP(=O)(O)O)C(=O)N1CCC[C@H]1C(=O)N[C@@H](CCCCN)C(=O)N[C@@H](CO)C(=O)O [ppIRS1] | 5.25 ± 0.3 µM
6 | CC[C@H](C)[C@H](NC(=O)[C@H](CC(N)=O)NC(=O)[C@@H](NC(=O)[C@H](Cc1ccc(OP(=O)(O)O)cc1)NC(=O)[C@H](CCC(=O)O)NC(=O)CNC(=O)[C@@H]1CCCN1C(=O)[C@H](COP(=O)(O)O)NC(=O)[C@H](CCCCN)NC(=O)[C@@H]1CCCN1C(=O)[C@@H](N)CCC(=O)O)C(C)C)C(=O)N[C@@H](CCC(=O)O)C(=O)N[C@@H](Cc1ccccc1)C(=O)O [ppSRev-IRS1] | 0.72 ± 0.06 µM
